Source: US10280197B2, “Discovery of the first selective C5A receptor 2 (C5L2/C5AR2) ligands” (The Regents of the University of California, priority 2015, dated 2019)

What was measured:
C5a1 = target: T1, C5a1 (Homo sapiens, UniProt P21730); assay: BRET β-arrestin 2 recruitment by C5a1 in HEK293 cells; assay type: cell-based; design: expressed in transfected cells; host or cells: HEK293 (transient); settings: P32 or P59 100 μM
T1 sequence (P21730 1-350): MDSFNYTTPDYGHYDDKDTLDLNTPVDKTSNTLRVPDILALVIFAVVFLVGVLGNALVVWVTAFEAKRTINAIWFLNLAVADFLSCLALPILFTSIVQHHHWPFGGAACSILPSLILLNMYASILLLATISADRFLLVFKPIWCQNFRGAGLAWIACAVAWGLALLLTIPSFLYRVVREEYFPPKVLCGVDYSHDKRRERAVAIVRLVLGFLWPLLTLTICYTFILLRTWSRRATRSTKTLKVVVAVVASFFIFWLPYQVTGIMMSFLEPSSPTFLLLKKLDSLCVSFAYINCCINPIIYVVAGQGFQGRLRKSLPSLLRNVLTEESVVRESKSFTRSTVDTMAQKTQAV
Procedure: Assays were performed as a ligand-induced BRET experiment similar to previously described^17, 31, 49. In brief, HEK293 cells were transiently transfected with either C5a1-Rluc8 and β-arrestin 2-Venus or C5a2-Venus and β-arrestin 2-Rluc8 or C5a1-Rluc8 and C5a2-Venus in a 100-mm dish. 24 h after transfection cells were collected and transferred to a 96-well white microplate (Corning, N.Y., USA) in phenol-red free DMEM containing 5% FBS and 25 mM HEPES (Life Technologies). Cells were allowed to settle for 24 h and then were incubated with 30 μM Enduren (Promega, Madison, Wis., USA) for 2 h at 37° C. and 5% CO2 to ensure that the substrate had reached equilibrium. Following incubation BRET baseline measurements were taken for 15 min then ligands were added to plate and BRET measurements were taken for a further 1 h at 37° C. using a POLARstar optima microplate reader (BMG Labtech, Ortenberg, Germany). Filtered light emissions were sequentially measured for 1 s in each of the following windows 460-490 nm and 520-550 nm, both before and following ligand addition. The ligand-induced BRET ratio was calculated by subtracting the ratio of 520-550 nm emission over the 460-490 nm emission for a vehicle-treated sample from a ligand-treated sample of the same aliquot of cells in triplicate. […]

[1] = test system: C5a-induced neutrophil mobilization; assay: C5a-induced neutrophil mobilization in wild-type mice; assay type: in vivo, C57BL/6J wild-type mice; settings: P32 3 mg/kg i.v. with C5a 50 μg/kg, 30 min
Procedure: (§1) FIG. 6 is a panel of graphs showing that P32 inhibits C5a-induced neutrophil mobilization in vivo in a C5aR2 dependent manner. Neutrophil mobilization quantified 30 min after i.v. injection of PBS, C5a (50 μg/kg), or P32 (3 mg/kg) with and without C5a present into the femoral vein of either C57BL/6J wild-type (6A) or C5aR2^−/− (6B) on a C57BL/6J background mice. Total circulating leukocyte counts were determined from blood smears and total white blood cell counts using a hemocytometer. Data are representative from at least 6 mice per treatment group and blood smears in triplicate (n=6). Error bars represent SEM. * P<0.05, *** P<0.001 by one-way ANOVA followed by Dunnett's post hoc test
(§2) To further explore the selectivity of the ligands P32 was tested in a mouse model of C5a-induced neutrophil mobilization (FIG. 6). […] Assuming a mouse blood volume of 2 mL for a 25 g mouse, a concentration of 3 mg/kg would result in Cmax blood concentrations of ˜50 uM, a dose within the active range of this compound from our in vitro studies

[2] = test system: C5a-induced neutrophil mobilization; assay: C5a-induced neutrophil mobilization in C5aR2-/- mice; assay type: in vivo, C5aR2-/- mice on a C57BL/6J background; settings: P32 3 mg/kg i.v. with C5a 50 μg/kg, 30 min
Procedure: as §1, §2

Substance: Ac-LIRLWR-OH [Peptide P59, Ac-LIRLWR-OH]
- β-arrestin 2 recruitment via C5a1 (C5a1): Neither, P32 or P59 could recruit β-arrestin 2 via C5a1

Substance: Ac-RHYPYWR-OH [Peptide P32, Ac-RHYPYWR-OH]
- inhibition of C5a-induced neutrophil mobilization [1]: significantly inhibit
- inhibition of C5a-induced neutrophil mobilization [2]: attenuated
- β-arrestin 2 recruitment via C5a1 (C5a1): Neither, P32 or P59 could recruit β-arrestin 2 via C5a1
